Results reported in patent publication US5792758A, “Steroid nitrite ester derivatives useful as anti-inflammatory drugs” (G. D. Searle & Co., priority 1995, dated 1998).

Tested on: rat aortic ring
Experiment: In vitro smooth muscle relaxant activity assay (rat aortic ring assay) in the presence of Cys and L-NAME
Assay type: cell-based
Details: for EC50: rat aortic rings precontracted with phenylephrine (0.3 uM), read-out: Relaxation, EC50
Protocol: The rat aortic ring assay was utilized as a bioassay to measure the relaxant activity. The rings were precontracted with phenylephrine (0.3 uM) and subsequently compounds were added to the tissue bath in the presence of cysteine (Cys) and N^G -L-nitroarginine methyl ester (L-NAME): In vitro smooth muscle relaxant activity assay in the presence of Cys and L-NAME: […]

| SMILES | EC50 [µM] | smooth muscle relaxant activity (in words) (rat aortic rings precontracted with phenylephrine) |
| --- | --- | --- |
| CCCC1O[C@@H]2C[C@H]3[C@@H]4CCC5=CC(=O)C=C[C@]5(C)[C@H]4[C@@H](ON=O)C[C@]3(C)[C@]2(C(=O)CO)O1 (stereo partly shown) [Example 1, Budesonide-11-nitrite ester] | 0.02 | – |
| CCCC1O[C@@H]2C[C@H]3[C@@H]4CCC5=CC(=O)C=C[C@]5(C)[C@H]4[C@@H](O)C[C@]3(C)[C@]2(C(=O)CO[N+](=O)[O-])O1 (stereo partly shown) [Example 2A, Budesonide-21-Nitrate ester] | 5 | – |
| CCCC1O[C@@H]2C[C@H]3[C@@H]4CCC5=CC(=O)C=C[C@]5(C)[C@H]4[C@@H](O)C[C@]3(C)[C@]2(C(=O)CO)O1 (stereo partly shown) [budesonide, 16a,17-butylidenedioxyprednisolone] | 100 | did not show any effect |
